Where a SMILES comes first, the peptide text is derived from it. Where no end group is shown, it is not given here. [ ]: non-standard residue; d: D form.
Assays:
human erythrocytes = assay: Hemolytic activity; format: cell-based; settings: 37 °C, Fig. 2; for hemolytic activity under the concentration of 100 μM: 8% human erythrocytes in PBS pH 7.4, 60 min, hemoglobin release at 490 nm; for hemolytic activity compared to polybia-MPI: 8% human erythrocytes in PBS pH 7.4, peptide up to 256 µM, 60 min, 490 nm
Protocol: Fresh human blood was collected in heparinized-tube, diluted in cold PBS (pH 7.4) and centrifuged at 800g for 10 min to remove the serum and buffy coat. The erythrocytes were washed twice time and re-suspended in the same buffer to a final erythrocyte concentration of 8% for the hemolysis assay (Sharma and Sharma [2001]). The RBC (red blood cell) suspension of 100 µl was transferred into a 96 well microtiter plate. Peptides were dissolved in PBS (pH 7.4) of different concentrations from 2 to 256 µM were incubated with 8% erythrocytes suspension for 60 min at 37 °C. Subsequently, the plate was centrifuged at 1200×g for 10 min. Then, aliquots of 100 µl supernatant were retransferred to an another 96-well plates and measured to monitor the release of hemoglobin by microplate reader (Bio-Rad 680) at 490 nm, which indicated RBC membrane damage. 100 µl RBC (red blood cell) suspension with 0.2% Triton-X 100 or PBS was used as positive and negative control, respectively. Hemolysis rate was determined as below: Hemolysisrate(%)=(A-A2)/(A1-A2)×100% where A is the absorbance of indicator mixtures with different factors, A1 and A2 are the positive control, and the negative control, respectively (Kim et al. [2011]).
Fig. 2 The hemolytic activity of polybia-MPI and synthetic D-MPI and D-lys-MPI against human erythrocytes were determined. Fresh human blood was collected and centrifuged to remove the serum and buffy coat, and re-suspended to a final erythrocyte concentration of 8% erythrocytes suspension. Then, peptides of different concentrations from 2 to 256 μM were incubated with erythrocytes suspension for 60 min. Subsequently, the erythrocytes suspension was centrifuged and measured to monitor the release of hemoglobin at 490 nm

trypsin [1] = assay: Viability assay: antimicrobial activity against E. coli after trypsin treatment (Fig. 5); format: in vitro ADME; settings: 37 °C, then E. coli at MIC, OD 600 nm
Protocol: Viability assay different concentration of trypsin (from 0.0002 to 2 mg/ml) incubated with peptides for 1 or 6 h at 37 °C, and the enzymatic activity was terminated by additional heat inactivation at 60 °C for 20 min. Then the trypsin treated peptides were incubated with Escherichia coli (ATCC25922) at the concentration of MIC in 96-wells microtiter plate overnight at 37 °C (Choi et al. [2013]). The growth inhibitory effect was determined by measuring the absorbance at 600 nm. Then we took 100 μl samples of 6 h from each well with the concentration of 0.2 mg/ml and plated onto MH broth ager after dilution. After overnight incubation at 37 °C, photos of plates were photographed and the colonies on the plate were counted.

chymotrypsin [2] = assay: Viability assay: antimicrobial activity against E. coli after chymotrypsin treatment (Fig. 5); format: in vitro ADME; settings: 37 °C, then E. coli at MIC, OD 600 nm
trypsin [3] = assay: Radial diffusion assay after trypsin pre-incubation; format: in vitro ADME; settings: pre-incubation 4 h 37 °C, plates 18–24 h 37 °C, Fig. 6
Protocol: (§1) The enzymatic stability of Polybia-MPI and its analogues was evaluated by a modification of the sensitive radial diffusion assay. The bacteria were cultured until the optical density at 600 nm (OD600) of an aliquot reached 0.5. One milliliter of the bacteria suspension was added to 100 ml of previously autoclaved, warm Mueller–Hinton agar (MHA)/Sabouraud dextrose agar. The medium were poured into layer of a 5 mm deep. Wells were performed with a sterile plastic bore of a 3-mm-diameter gel punch. Following the addition of 20 µl pre-incubated mixture of peptides and different concentrations of trypsin or chymotrypsin for 4 h into wells. The plates were incubated at 37 °C for 18 to 24 h. An equal volume of 20 µl mixture had no trypsin or chymotrypsin was used as the control. The size of the clear zones surrounding each well as indicators of the enzymatic stability of Polybia-MPI and its analogues.
(§2) Fig. 6 The viability of bacteria/fungi after incubation with peptides in the presence/absence of enzyme. Each peptide was pre-incubated with different concentrations of chymotrypsin (a) or trypsin (b) at 37 °C for 4 h. Then the samples were heat inactivated and poured into wells of plates. The plates were incubated at 37 °C for 18–24 h. Controls were without trypsin or chymotrypsin

chymotrypsin [4] = assay: Radial diffusion assay after chymotrypsin pre-incubation; format: in vitro ADME; settings: pre-incubation 4 h 37 °C, plates 18–24 h 37 °C, Fig. 6
Protocol: as §1, §2

chymotrypsin [5] = assay: RP-HPLC analysis of stability to chymotrypsin; format: in vitro ADME; settings: peptide 10 mM, chymotrypsin 0.2 mg/ml, 37 °C, 0 and 360 min, TFA/acetonitrile precipitation, Fig. 7
Protocol: The stability of polybia-MPI and its analogues was assayed with trypsin or chymotrypsin in a volume ratio of 1:15 (peptide:trypsin) (Choi et al. [2013]; Hamamoto et al. [2002]; Molhoek et al. [2011]). Peptides at the concentration of 10 mM were incubated with trypsin or chymotrypsin (0.2 mg/ml) at 37 °C. 40 µl samples of the incubations were taken for the time of 0 and 360 min, respectively. Then, the samples were mixed with 80 µl of 15% trifluoroacetic acid (TFA) and 80 µl acetonitrile which incubated at 4 °C for at least 15 min to precipitate proteins. The supernatant was collected of each sample after centrifugation at 13,000 rpm for 10 min and were detected with reverse phase high performance liquid chromatography (RP-HPLC) analysis.
Fig. 7 HPLC analysis of the susceptibility of polybia-MPI, D-MPI and D-lys-MPI to trypsin and chymotrypsin. Peptides at the concentration of 10 mM were incubated with trypsin or chymotrypsin at 37 °C. At the determined time interval, samples were taken and mixed with trifluoroacetic acid (TFA) and acetonitrile to precipitate proteins, respectively. Then the samples were detected with reverse phase high performance liquid chromatography (RP-HPLC) analysis

[6] = RP-HPLC analysis of stability to proteases in human serum; format: in vitro ADME; settings: method details not given
Source text: In the present study, HPLC was used to determine the stability of polybia-MPI, D-lys-MPI and D-MPI to trypsin, chymotrypsin and proteases in human serum.

trypsin [7] = assay: Bactericidal activity after trypsin treatment, colony plates (Fig. 4); settings: peptide with trypsin 4 h 37 °C, enzyme heat inactivated at 60 °C, E. coli co-incubated 3 h, plated 24 h
Protocol: To test the stability of polybia-MPI and D-MPI, first 1 mg/l of the peptides were incubated with trypsin and chymotrypsin for 4 h for degradation. After the enzyme was heat inactivated at 60 °C for 15 min, E. coli was added and co-incubated for 3 h. Then, the treated bacteria were coated to plate and incubated at 37 °C for 24 h.
Peptides were incubated with the same volume of PBS (Left) or trypsin (Right) at 37 °C for 4 h. The enzyme was heat inactivated at 60 °C for 20 min, and E. coli suspension was added and co-incubated for 3 h. Then, the mixtures were plated onto MH broth ager and incubated for 18–24 h. Pictures of each plate were photographed

With `CC[C@@H](C)[C@@H](N)C(=O)N[C@H](CC(=O)O)C(=O)N[C@H](Cc1c[nH]c2ccccc12)C(=O)N[C@H](CCCCN)C(=O)N[C@H](CCCCN)C(=O)N[C@H](CC(C)C)C(=O)N[C@H](CC(C)C)C(=O)N[C@H](CC(=O)O)C(=O)N[C@H](C)C(=O)N[C@H](C)C(=O)N[C@H](CCCCN)C(=O)N[C@H](CCC(N)=O)C(=O)N[C@@H](C(=O)N[C@H](CC(C)C)C(N)=O)[C@H](C)CC` [D-MPI] (H-[dI][dD][dW][dK][dK][dL][dL][dD][dA][dA][dK][dQ][dI][dL]-NH2) the “hemolytic activity under the concentration of 100 μM” value (from here on “hemolytic activity … of 100 μM”) (human erythrocytes) was “no significant hemolytic activity”, the “hemolytic activity compared to polybia-MPI” value (human erythrocytes) was “decreased” and the “antimicrobial activity after incubation with trypsin” value (trypsin [1]; 2 mg/ml trypsin, 6 h) was “retained its antimicrobial activity”. For the same compound, the “antimicrobial activity after incubation with chymotrypsin” value (chymotrypsin [2]; 2 mg/ml chymotrypsin, 6 h) was “retained its antimicrobial activity”, the “inhibition zone diameters after incubation with trypsin” value (trypsin [3]; 2 mg/ml trypsin) was “almost the same as control” and the “inhibition zone diameters after incubation with chymotrypsin” value (chymotrypsin [4]; 2 mg/ml chymotrypsin) was “almost the same as control”. The “susceptibility to chymotrypsin by HPLC profile” value (shortened to “susceptibility to chymotrypsin”) (chymotrypsin [5]) was “not or only partly degraded”, the “susceptibility to proteases in human serum by HPLC profile” value (“susceptibility to proteases” below) [6] was “not or only partly degraded” and the “E. coli colonies on plate after treatment with trypsin-incubated peptide” value (trypsin [7]) was “no colony”.
For `CC[C@H](C)[C@H](N)C(=O)N[C@@H](CC(=O)O)C(=O)N[C@@H](Cc1c[nH]c2ccccc12)C(=O)N[C@H](CCCCN)C(=O)N[C@H](CCCCN)C(=O)N[C@@H](CC(C)C)C(=O)N[C@@H](CC(C)C)C(=O)N[C@@H](CC(=O)O)C(=O)N[C@@H](C)C(=O)N[C@@H](C)C(=O)N[C@H](CCCCN)C(=O)N[C@@H](CCC(N)=O)C(=O)N[C@H](C(=O)N[C@@H](CC(C)C)C(N)=O)[C@@H](C)CC` [D-lys-MPI] (H-IDW[dK][dK]LLDAA[dK]QIL-NH2), the “hemolytic activity … of 100 μM” value (human erythrocytes) was “no significant hemolytic activity”, the “hemolytic activity compared to polybia-MPI” value (human erythrocytes) was “abrogated” and the “susceptibility to chymotrypsin” value (chymotrypsin [5]) was “not or only partly degraded”. The “susceptibility to proteases” value [6] was “not or only partly degraded”.
For IDWKKLLDAAKQIL-NH2 [Polybia-MPI], the “hemolytic activity … of 100 μM” value (human erythrocytes) was “no significant hemolytic activity”, the “trypsin concentration that totally inhibits the antimicrobial activity of the peptide” value (trypsin [1]; incubation 1 h) was 0.002 mg/mL and the “chymotrypsin concentration that totally inhibits the antimicrobial activity of the peptide” value (chymotrypsin [2]; incubation 1 h) was 0.002 mg/mL. For the same compound, the “inhibition zone diameters after incubation with trypsin” value (trypsin [3]; 0.02–2 mg/ml trypsin) was “decreased even disappeared”, the “inhibition zone diameters after incubation with chymotrypsin” value (chymotrypsin [4]; 0.02–2 mg/ml chymotrypsin) was “decreased even disappeared” and the “susceptibility to chymotrypsin” value (chymotrypsin [5]) was “susceptible”. For the same compound, the “susceptibility to proteases” value [6] was “susceptible” and the “E. coli colonies on plate after treatment with trypsin-incubated peptide” value (trypsin [7]) was “many colonies”.
